Experimental data: ChEMBL document CHEMBL3351331, “Novel Disubstituted Pyrimidines as Inhibitors of Bruton's Tyrosine Kinase” (ACS Med Chem Lett, 2015)

Target: Tyrosine-protein kinase BTK (Homo sapiens, UniProt Q06187)
Experiment: Inhibition of BTK (unknown origin) by Omnia continuous read kinase assay

Chain of Tyrosine-protein kinase BTK (Q06187 whole entry): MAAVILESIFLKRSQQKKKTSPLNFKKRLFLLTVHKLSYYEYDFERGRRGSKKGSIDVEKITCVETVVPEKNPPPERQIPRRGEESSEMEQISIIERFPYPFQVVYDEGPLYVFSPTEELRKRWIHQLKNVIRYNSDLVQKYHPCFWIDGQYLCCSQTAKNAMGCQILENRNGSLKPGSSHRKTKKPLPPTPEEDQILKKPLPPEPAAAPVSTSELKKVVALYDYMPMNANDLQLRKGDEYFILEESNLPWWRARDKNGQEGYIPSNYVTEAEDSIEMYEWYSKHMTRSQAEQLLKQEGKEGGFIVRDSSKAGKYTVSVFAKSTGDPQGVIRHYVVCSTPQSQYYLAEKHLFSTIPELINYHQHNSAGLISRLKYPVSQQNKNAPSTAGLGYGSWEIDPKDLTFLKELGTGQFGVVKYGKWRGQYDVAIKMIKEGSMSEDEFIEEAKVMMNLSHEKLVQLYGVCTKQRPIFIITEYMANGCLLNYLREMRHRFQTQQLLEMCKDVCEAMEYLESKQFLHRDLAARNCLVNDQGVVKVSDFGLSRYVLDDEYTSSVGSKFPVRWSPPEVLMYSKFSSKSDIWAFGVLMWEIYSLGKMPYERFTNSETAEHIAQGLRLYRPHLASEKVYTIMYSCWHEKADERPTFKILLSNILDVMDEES

SMILES	IC50
COCCOc1ccc(Nc2ncc(F)c(Nc3cccc(NC(=O)C4CO4)c3)n2)cc1 (stereo unspecified)	< 10 nM
COCCOc1ccc(Nc2ncc(F)c(Nc3cccc(NC(=O)C(O)CO)c3)n2)cc1 (stereo unspecified)	101 nM
C=CC(=O)Nc1cccc(Nc2nc(Nc3ccc(OCCO)cc3)ncc2F)c1	< 10 nM
C=CC(=O)Nc1cccc(N(C)c2nc(Nc3ccc(OCCO)cc3)ncc2F)c1	< 10 nM
C=CC(=O)Nc1cccc(Nc2nc(N(C)c3ccc(OCCO)cc3)ncc2F)c1	101 nM
C=CC(=O)Nc1cccc(Nc2nc(Nc3ccc(O)cc3)ncc2F)c1	< 10 nM
